Test results from PubChem BioAssay AID1745844 (Carcinogenic Potency Database (CPDB), 2022).
Activity calls are given as the source filed them. The rule behind the calls is not given here.

Test system: rodent lifetime carcinogenesis bioassay, tumor incidence TD50
Test: chronic cancer bioassays in animals – CPDB, compiled studies (AID 1745844)

SMILES: NNc1nc(-c2ccc([N+](=O)[O-])cc2)cs1
- TD50 (mouse, strain Swiss, females, in feed, site: all sites, lesion: lymphocytic leukemia, dosed 46 weeks, study length 66 weeks): 10.6 mg/kg/day
- TD50 (mouse, strain Swiss, females, in feed, site: any site (literature study), lesion: several types, types named in the paper, dosed 46 weeks, study length 66 weeks): 8.33 mg/kg/day
- TD50 (mouse, strain Swiss, females, in feed, site: lung, lesion: alveolar-cell carcinoma, dosed 46 weeks, study length 66 weeks): 25 mg/kg/day
- TD50 (rat, strain Sprague-Dawley, females, in feed, site: any site (literature study), lesion: several types, types named in the paper, dosed 46 weeks, study length 75 weeks): 0.743 mg/kg/day
- TD50 (rat, strain Sprague-Dawley, females, in feed, site: forestomach, lesion: squamous-cell papilloma, dosed 46 weeks, study length 75 weeks): 9 mg/kg/day
- TD50 (rat, strain Sprague-Dawley, females, in feed, site: mammary gland, lesion: adenocarcinoma, dosed 45 weeks, study length 52 weeks): 9.51 mg/kg/day
- TD50 (rat, strain Sprague-Dawley, females, in feed, site: mammary gland, lesion: adenocarcinoma, dosed 46 weeks, study length 75 weeks): 3.78 mg/kg/day
- TD50 (rat, strain Sprague-Dawley, females, in feed, site: mammary gland, lesion: several types, types named in the paper, dosed 45 weeks, study length 52 weeks): 8.66 mg/kg/day
- TD50 (rat, strain Sprague-Dawley, females, in feed, site: mammary gland, lesion: several types, types named in the paper, dosed 46 weeks, study length 75 weeks): 1.97 mg/kg/day
- TD50 (rat, strain Sprague-Dawley, females, in feed, site: salivary gland, lesion: adenocarcinoma, dosed 45 weeks, study length 52 weeks): 21.7 mg/kg/day

SMILES: CN(N=O)c1ccc(F)cc1
- TD50 (rat, strain Fischer 344, males, in drinking water, site: esophagus, lesion: several types, types named in the paper, dosed 50 weeks, study length 114 weeks): 0.255 mg/kg/day
- TD50 (rat, strain Fischer 344, males, in drinking water, site: liver, lesion: hyperplastic nodule, dosed 50 weeks, study length 114 weeks): 10.3 mg/kg/day

SMILES: c1ccc2[nH]ccc2c1
- carcinogen call (mouse, strain Swiss albino, females, in feed, site: urinary bladder, lesion: carcinoma, dosed 70 weeks, study length 70 weeks): negative (inactive)

SMILES: CC(CCl)OC(C)CCl (configuration not stated)
- TD50 (mouse, strain B6C3F1, females, by gavage, site: any site (literature study), lesion: several types, types named in the paper, dosed 103 weeks, study length 106 weeks): 231 mg/kg/day
- TD50 (mouse, strain B6C3F1, females, by gavage, site: lung, lesion: alveolar/bronchiolar adenoma + alveolar/bronchiolar carcinoma, dosed 103 weeks, study length 106 weeks): 311 mg/kg/day
- TD50 (mouse, strain B6C3F1, females, by gavage, site: lung, lesion: alveolar/bronchiolar adenoma, dosed 103 weeks, study length 106 weeks): 381 mg/kg/day
- TD50 (mouse, strain B6C3F1, females, by gavage, site: stomach, lesion: squamous-cell carcinoma + squamous-cell papilloma, dosed 103 weeks, study length 106 weeks): 1650 mg/kg/day
- TD50 (mouse, strain B6C3F1, males, by gavage, site: any site (literature study), lesion: several types, types named in the paper, dosed 103 weeks, study length 105 weeks): 116 mg/kg/day
- TD50 (mouse, strain B6C3F1, males, by gavage, site: liver, lesion: hepatocellular adenoma + hepatocellular carcinoma + neoplastic nodule, dosed 103 weeks, study length 105 weeks): 138 mg/kg/day
- TD50 (mouse, strain B6C3F1, males, by gavage, site: liver, lesion: hepatocellular adenoma + hepatocellular carcinoma, dosed 103 weeks, study length 105 weeks): 138 mg/kg/day
- TD50 (mouse, strain B6C3F1, males, by gavage, site: liver, lesion: hepatocellular carcinoma, dosed 103 weeks, study length 105 weeks): 229 mg/kg/day
- TD50 (mouse, strain B6C3F1, males, by gavage, site: lung, lesion: alveolar/bronchiolar adenoma + alveolar/bronchiolar carcinoma, dosed 103 weeks, study length 105 weeks): 259 mg/kg/day
- TD50 (mouse, strain B6C3F1, males, by gavage, site: lung, lesion: alveolar/bronchiolar adenoma, dosed 103 weeks, study length 105 weeks): 306 mg/kg/day
- TD50 (rat, strain Fischer 344, females, by gavage, site: any site (literature study), lesion: several types, types named in the paper, dosed 103 weeks, study length 105 weeks): 65.6 mg/kg/day (inactive)
- TD50 (rat, strain Fischer 344, males, by gavage, site: any site (literature study), lesion: several types, types named in the paper, dosed 103 weeks, study length 104 weeks): 101 mg/kg/day (inactive)

SMILES: Cc1ncc[nH]1
- TD50 (mouse, strain B6C3F1, females, in feed, site: any site (literature study), lesion: several types, types named in the paper, dosed 104 weeks, study length 104 weeks): 729 mg/kg/day
- TD50 (mouse, strain B6C3F1, females, in feed, site: liver, lesion: hepatocellular adenoma + hepatoblastoma + hepatocellular carcinoma, dosed 104 weeks, study length 104 weeks): 1620 mg/kg/day
- TD50 (mouse, strain B6C3F1, females, in feed, site: liver, lesion: hepatocellular adenoma, dosed 104 weeks, study length 104 weeks): 1380 mg/kg/day
- TD50 (mouse, strain B6C3F1, males, in feed, site: any site (literature study), lesion: several types, types named in the paper, dosed 104 weeks, study length 104 weeks): 866 mg/kg/day
- TD50 (mouse, strain B6C3F1, males, in feed, site: liver + thyroid gland, lesion: hepatocellular adenoma + hepatocellular carcinoma + follicular-cell adenoma, dosed 104 weeks, study length 104 weeks): 378 mg/kg/day
- TD50 (mouse, strain B6C3F1, males, in feed, site: liver, lesion: hepatocellular adenoma + hepatoblastoma + hepatocellular carcinoma, dosed 104 weeks, study length 104 weeks): 546 mg/kg/day
- TD50 (mouse, strain B6C3F1, males, in feed, site: liver, lesion: hepatocellular adenoma + hepatocellular carcinoma, dosed 104 weeks, study length 104 weeks): 546 mg/kg/day
- TD50 (mouse, strain B6C3F1, males, in feed, site: liver, lesion: hepatocellular adenoma, dosed 104 weeks, study length 104 weeks): 648 mg/kg/day
- TD50 (mouse, strain B6C3F1, males, in feed, site: liver, lesion: hepatocellular carcinoma, dosed 104 weeks, study length 104 weeks): 378 mg/kg/day
- TD50 (mouse, strain B6C3F1, males, in feed, site: thyroid gland, lesion: follicular-cell adenoma, dosed 104 weeks, study length 104 weeks): 1810 mg/kg/day
- TD50 (rat, strain Fischer 344, females, in feed, site: any site (literature study), lesion: several types, types named in the paper, dosed 105 weeks, study length 105 weeks): 131 mg/kg/day
- TD50 (rat, strain Fischer 344, females, in feed, site: liver, lesion: hepatocellular adenoma + hepatoblastoma + hepatocellular carcinoma, dosed 105 weeks, study length 105 weeks): 2000 mg/kg/day
- TD50 (rat, strain Fischer 344, females, in feed, site: liver, lesion: hepatocellular adenoma, dosed 105 weeks, study length 105 weeks): 2000 mg/kg/day
- TD50 (rat, strain Fischer 344, females, in feed, site: thyroid gland, lesion: follicular-cell adenoma + follicular-cell carcinoma, dosed 105 weeks, study length 105 weeks): 882 mg/kg/day
- TD50 (rat, strain Fischer 344, females, in feed, site: thyroid gland, lesion: follicular-cell adenoma, dosed 105 weeks, study length 105 weeks): 2100 mg/kg/day
- TD50 (rat, strain Fischer 344, females, in feed, site: thyroid gland, lesion: follicular-cell carcinoma, dosed 105 weeks, study length 105 weeks): 1380 mg/kg/day
- TD50 (rat, strain Fischer 344, males, in feed, site: any site (literature study), lesion: several types, types named in the paper, dosed 104 weeks, study length 104 weeks): 303 mg/kg/day
- TD50 (rat, strain Fischer 344, males, in feed, site: liver, lesion: hepatocellular adenoma + hepatoblastoma + hepatocellular carcinoma, dosed 104 weeks, study length 104 weeks): 663 mg/kg/day
- TD50 (rat, strain Fischer 344, males, in feed, site: liver, lesion: hepatocellular adenoma + hepatocellular carcinoma, dosed 104 weeks, study length 104 weeks): 663 mg/kg/day
- TD50 (rat, strain Fischer 344, males, in feed, site: pancreatic islets, lesion: islet-cell adenoma, dosed 104 weeks, study length 104 weeks): 1010 mg/kg/day
- TD50 (rat, strain Fischer 344, males, in feed, site: skin, lesion: basal-cell carcinoma + keratoacanthoma + trichoepithelioma, dosed 104 weeks, study length 104 weeks): 624 mg/kg/day
- TD50 (rat, strain Fischer 344, males, in feed, site: thyroid gland, lesion: follicular-cell adenoma + follicular-cell carcinoma, dosed 104 weeks, study length 104 weeks): 854 mg/kg/day
